{"source": "patent US5270321A", "about": "“Use of dicentrine and its derivatives for the treatment of arrhythmia” (priority 1992, dated 1993)", "key": {"α1 -adrenoceptor": {"biological_target": "T1, α1 -adrenoceptor (Rattus norvegicus, UniProt P23944)", "T1 construct": "contraction of rat thoracic aortae; from tissue; host or cells: rat thoracic aorta", "T1 sequence (P23944 1-561)": "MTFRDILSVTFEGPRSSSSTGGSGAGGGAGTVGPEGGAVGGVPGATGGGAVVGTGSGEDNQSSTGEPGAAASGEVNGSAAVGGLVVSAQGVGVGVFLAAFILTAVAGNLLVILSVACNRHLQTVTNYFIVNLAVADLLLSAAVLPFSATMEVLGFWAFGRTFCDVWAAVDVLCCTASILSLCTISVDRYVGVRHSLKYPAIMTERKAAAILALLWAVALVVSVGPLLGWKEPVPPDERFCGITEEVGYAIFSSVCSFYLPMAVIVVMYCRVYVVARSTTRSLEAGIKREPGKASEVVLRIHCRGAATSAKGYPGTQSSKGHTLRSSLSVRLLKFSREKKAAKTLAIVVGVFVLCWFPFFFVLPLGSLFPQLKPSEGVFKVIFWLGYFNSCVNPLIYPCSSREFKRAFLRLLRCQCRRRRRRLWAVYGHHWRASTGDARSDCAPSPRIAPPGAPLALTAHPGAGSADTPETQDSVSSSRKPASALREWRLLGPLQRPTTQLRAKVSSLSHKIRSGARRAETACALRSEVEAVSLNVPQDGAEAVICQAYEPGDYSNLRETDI", "assay": "α1-adrenoceptor antagonism, concentration-response (Schild) analysis of norepinephrine- and phenylephrine-induced contraction of rat thoracic aortae", "format": "cell-based", "conditions": "for Kb: means ± S.E.M."}, "[1]": {"system": "pentobarbital-anesthetized rats", "assay": "Systemic hemodynamic parameters of anesthetized rats", "format": "in vivo, rat"}, "rat ventricular cells": {"system": "rat ventricular cells", "assay": "Action potential in rat ventricular cells", "format": "cell-based", "conditions": "for AP amplitude / APD50 (action potential duration measured at 50% repolarization from the peak amplitude) / Tp (time to peak measured from the start of depolarization to the peak of the action potential): 3 μM, Ca^++ -Tyrode, 3 to 5 min exposure, means ± S.E.M.", "text": "(§1) In rat ventricular cells, the effects of dicentrine on action potential and membrane current were studied. […] However, calcium current was less affected.\nThe effects of dicentrine and quinidine on action potential were compared and studied in rat ventricular cells. […] In addition to the prolongation of APD50, a depression of initial upstroke amplitude from 138.3±2.6 mV to 125.5±4.5 mV and prolongation of the time to peak amplitude from 5.0±0.5 msec to 10.0±1.9 msec were observed."}, "guinea-pig trachea": {"system": "guinea-pig trachea", "assay": "Contraction and relaxation of guinea-pig trachea", "format": "cell-based"}, "serum triglyceride": {"system": "serum triglyceride", "assay": "Serum triglyceride level in rats fed with cholesterol-triglyceride-rich diet", "format": "in vivo, rat"}, "normotensive (NT) rats": {"system": "normotensive (NT) rats", "assay": "Mean arterial pressure in conscious normotensive (NT) rats", "format": "in vivo, rat"}, "[2]": {"system": "fast sodium inward current", "assay": "Fast sodium inward current in rat ventricular cells", "format": "cell-based", "text": "as §1"}, "isolated thoracic aorta": {"system": "isolated thoracic aorta", "assay": "Contractile force of isolated thoracic aorta of rats fed with high cholesterol and high fat diet", "format": "in vivo, rat"}, "calcium current": {"system": "calcium current", "assay": "Voltage clamp: calcium current in rat ventricular cells", "format": "cell-based", "text": "as §1"}, "[3]": {"system": "conscious spontaneously hypertensive (SH) rats", "assay": "Mean arterial pressure in conscious spontaneously hypertensive (SH) rats", "format": "in vivo, rat"}, "[4]": {"system": "transient outward and steady state outward current", "assay": "Voltage clamp: transient outward and steady state outward current in rat ventricular cells", "format": "cell-based", "text": "as §1"}, "aorta": {"system": "aorta", "assay": "Aortic contraction induced by U-46619, angiotensin II, high potassium or carbachol", "format": "cell-based, rat"}, "rat thoracic aorta": {"system": "rat thoracic aorta", "assay": "Norepinephrine-induced contraction of thoracic aorta", "format": "cell-based", "text": "They inhibited the aggregation of washed rabbit platelets induced by ADP, collagen, arachidonic acid and platelet-activating factor (PAF). […] Furthermore, the action potential of rat ventricular cells was prolonged by these fractions. After rechromatograph on a silica gel column with n-hexane-ethylacetate (2:1), four potent compounds, dicentrine, N-methylnandigerine, N-methylovigenine and dicentrinone were obtained.\nThe dried, ground root material (500 g) was extracted with 95% ethanol, and the extract was concentrated in vacua and fractionated into ethanol- and ethylacetate-soluble fractions. The ethylacetate-soluble fraction was then applied to a column of silica gel and eight fractions were obtained.\nConcentration: arachidonic acid (100 μM), collagen (10 μg/ml),\nnorepinephrine (NE, 3 μM), each fraction (100 μg/ml)."}, "[5]": {"conditions": "pentobarbital-anesthetized rats"}, "[6]": {"conditions": "concentration-response curve analysis"}}, "note": "Read-outs that look alike come from different tables or passages of the source.", "data": [{"smiles": "Cc1ccc(N(CC2=NCCN2)c2cccc(O)c2)cc1", "note": "[Phentolamine, phentolamine, reference compound]", "values": [{"measurement": "slope", "setting": "α1 -adrenoceptor; Schild slope, agonist phenylephrine, 95% confidence limits in parentheses", "value": "0.72 (0.70-1.20)"}, {"measurement": "r", "setting": "α1 -adrenoceptor; agonist phenylephrine", "value": 0.99}]}, {"smiles": "COc1cc2nc(N3CCN(C(=O)c4ccco4)CC3)nc(N)c2cc1OC", "note": "[Prazosin, prazosin, reference compound]", "values": [{"measurement": "cardiac output (in words)", "setting": "[1]; [5]", "value": "little or no change in cardiac output (CO)"}, {"measurement": "mean arterial pressure (in words)", "setting": "[1]; [5]", "value": "a decrease in mean arterial pressure (MAP)"}, {"measurement": "total peripheral resistance (in words)", "setting": "[1]; [5]", "value": "a reduction in total peripheral resistance by increasing blood flow"}, {"measurement": "r", "setting": "α1 -adrenoceptor; agonist phenylephrine", "value": 0.99}]}, {"smiles": "C=C[C@H]1C[N@@]2CC[C@H]1C[C@@H]2[C@@H](O)c1ccnc2ccc(OC)cc12", "note": "[Quinidine, quinidine, reference compound]", "values": [{"measurement": "AP amplitude", "setting": "rat ventricular cells", "value": "121.2 ± 2.3", "unit": "mV"}, {"measurement": "APD50 (action potential duration measured at 50% repolarization from the peak amplitude)", "setting": "rat ventricular cells", "value": "276.0 ± 18.6", "unit": "ms"}, {"measurement": "Tp (time to peak measured from the start of depolarization to the peak of the action potential)", "setting": "rat ventricular cells", "value": "10.8 ± 2.4", "unit": "ms"}]}, {"smiles": "COc1cc2c(cc1OC)-c1c3c(cc4c1[C@H](C2)N(C)CC4)OCO3", "note": "[Dicentrine, dicentrine]", "values": [{"measurement": "contraction of guinea-pig trachea caused by histamine or carbachol (in words)", "setting": "guinea-pig trachea; histamine or carbachol", "value": "slightly inhibited"}, {"measurement": "B-adrenoceptor relaxation to isoprenaline in trachea (in words)", "setting": "guinea-pig trachea; isoprenaline", "value": "not affected"}, {"measurement": "serum triglyceride level (in words)", "setting": "serum triglyceride", "value": "decreased the serum triglyceride level"}, {"measurement": "hypotensive activity after α1 -adrenoceptor blockade (in words)", "setting": "[1]; after α1 -adrenoceptor blockade", "value": "completely abolished"}, {"measurement": "mean arterial blood pressure (in words)", "setting": "[1]; anesthetized rats, i.v. bolus 0.1-1.0 mg/kg", "value": "dose-related reduction in mean arterial blood pressure"}, {"measurement": "persistence of reduction in mean arterial blood pressure", "setting": "[1]; anesthetized rats, i.v. bolus 0.1-1.0 mg/kg, throughout observation period", "value": "≥ 2", "unit": "h"}, {"measurement": "cardiac output (in words)", "setting": "[1]; [5]", "value": "little or no change in cardiac output (CO)"}, {"measurement": "mean arterial pressure (in words)", "setting": "[1]; [5]", "value": "a decrease in mean arterial pressure (MAP)"}, {"measurement": "total peripheral resistance (in words)", "setting": "[1]; [5]", "value": "a reduction in total peripheral resistance by increasing blood flow"}, {"measurement": "heart rate, stroke volume (in words)", "setting": "[1]; pentobarbital-anesthetized rats, in comparison with prazosin", "value": "no change in heart rate (HR), or stroke volume (SV)"}, {"measurement": "mean arterial pressure (in words)", "setting": "normotensive (NT) rats", "value": "dose-related decreases in mean arterial pressure"}, {"measurement": "fast sodium inward current (in words)", "setting": "[2]", "value": "inhibition of fast sodium inward current"}, {"measurement": "contractile force of cholesterol-triglyceride-treated rat aorta (in words)", "setting": "isolated thoracic aorta; cholesterol-triglyceride-rich diet", "value": "restored the contractile force of cholesterol-triglyceride-treated rat aorta back to normal values"}, {"measurement": "maximal contractile force of isolated thoracic aorta (in words)", "setting": "isolated thoracic aorta; high cholesterol and high fat diet three weeks, dicentrine 10 mg/kg oral twice a day in the last week, prazosin 5 mg/kg", "value": "restored to normal range"}, {"measurement": "AP amplitude", "setting": "rat ventricular cells", "value": "125.5 ± 4.5", "unit": "mV"}, {"measurement": "APD50 (action potential duration measured at 50% repolarization from the peak amplitude)", "setting": "rat ventricular cells", "value": "201.9 ± 28.7", "unit": "ms"}, {"measurement": "Tp (time to peak measured from the start of depolarization to the peak of the action potential)", "setting": "rat ventricular cells", "value": "10.0 ± 1.9", "unit": "ms"}, {"measurement": "AP amplitude", "setting": "rat ventricular cells; listed as dicentrine", "value": "125.5±4.5", "unit": "mV"}, {"measurement": "APD50 (action potential duration measured at 50% repolarization from the peak amplitude)", "setting": "rat ventricular cells; listed as dicentrine", "value": "201.9 ± 28.7", "unit": "ms"}, {"measurement": "Tp (time to peak measured from the start of depolarization to the peak of the action potential)", "setting": "rat ventricular cells; listed as dicentrine", "value": "10.0 ± 1.9", "unit": "ms"}, {"measurement": "action potential duration (in words)", "setting": "rat ventricular cells; stimulation frequency 0.1 Hz", "value": "prolonged the action potential"}, {"measurement": "initial upstroke amplitude (in words)", "setting": "rat ventricular cells; stimulation frequency 0.1 Hz", "value": "reduced the initial upstroke amplitude"}, {"measurement": "time to peak (in words)", "setting": "rat ventricular cells; stimulation frequency 0.1 Hz", "value": "increased the time to peak"}, {"measurement": "calcium current (in words)", "setting": "calcium current", "value": "less affected"}, {"measurement": "mean arterial pressure (in words)", "setting": "[3]; compared with NT rats", "value": "dose-related decreases in mean arterial pressure which were of greater magnitude in SH than in NT rats"}, {"measurement": "persistence of hypotensive effect", "setting": "[3]; oral administration", "value": "over 15 hr"}, {"measurement": "transient outward and steady state outward current (in words)", "setting": "[4]", "value": "significant inhibition of both transient outward and steady state outward current"}, {"measurement": "aortic contraction induced by U-46619, angiotensin II, high potassium or carbachol (in words)", "setting": "aorta", "value": "did not affect"}, {"measurement": "r", "setting": "α1 -adrenoceptor; agonist norepinephrine", "value": 0.99}, {"measurement": "Kb", "setting": "α1 -adrenoceptor; agonist norepinephrine, read-out: pA2 (converted)", "value": 6.46, "unit": "nM"}, {"measurement": "r", "setting": "α1 -adrenoceptor; agonist phenylephrine", "value": 0.99}, {"measurement": "potency compared with phentolamine or yohimbine (in words)", "setting": "α1 -adrenoceptor; [6]", "value": "much more potent than phentolamine or yohimbine"}, {"measurement": "potency compared with prazosin (in words)", "setting": "α1 -adrenoceptor; [6]", "value": "less potent than prazosin"}, {"measurement": "antagonism in denuded aorta (in words)", "setting": "α1 -adrenoceptor; denuded aorta", "value": "These effects still persisted in denuded aorta"}, {"measurement": "Kb", "setting": "α1 -adrenoceptor; pA2, agonist phenylephrine", "value": 0.977, "unit": "nM"}, {"measurement": "antagonism of norepinephrine- or phenylephrine-induced vasoconstriction (in words)", "setting": "α1 -adrenoceptor; rat aorta", "value": "competitive antagonism"}, {"measurement": "vasorelaxant potency (in words)", "setting": "rat thoracic aorta", "value": "the most potent vasorelaxant in rat thoracic aorta"}]}, {"smiles": "COC(=O)[C@@H]1[C@H]2C[C@H]3c4[nH]c5ccccc5c4CCN3C[C@@H]2CC[C@@H]1O", "note": "[Yohimbine, yohimbine, reference compound]", "values": [{"measurement": "r", "setting": "α1 -adrenoceptor; agonist phenylephrine", "value": 0.99}, {"measurement": "Kb", "setting": "α1 -adrenoceptor; pA2, agonist phenylephrine", "value": 631, "unit": "nM"}]}]}
